In ChEMBL document CHEMBL3120149, “A multiple free-radical scavenging (MULTIS) study on the antioxidant capacity of a neuroprotective drug, edaravone as compared with uric acid, glutathione, and trolox” (Bioorg Med Chem Lett, 2014):

Experiments:
Type in all cases: functional
[1] = Antioxidant activity assessed as AAPH-induced alkoxyl radical scavenging activity by ESR spin trapping method
[2] = Antioxidant activity assessed as rosebengal-induced singlet oxygen radical scavenging activity by ESR spin trapping method
[3] = Antioxidant activity assessed as riboflavin/EDTA-induced superoxide anion radical scavenging activity by ESR spin trapping method
[4] = Antioxidant activity assessed as DMSO/H2O2-induced methyl radical scavenging activity by ESR spin trapping method relative to DMPO
[5] = Antioxidant activity assessed as H2O2-induced hydroxyl radical scavenging activity by ESR spin trapping method relative to CYPMPO
[6] = Antioxidant activity assessed as rosebengal-induced singlet oxygen radical scavenging activity by ESR spin trapping method relative to 4-OH-TEMP
[7] = Antioxidant activity assessed as DMPO/H2O2-induced hydroxyl radical scavenging activity by fast-flow EPR technique
[8] = Antioxidant activity assessed as hydroxyl radical scavenging activity
[9] = Antioxidant activity assessed as AAPH-induced alkoxyl radical scavenging activity by ESR spin trapping method relative to CYPMPO
[10] = Antioxidant activity assessed as t-butylhyroperoxide-induced alkylperoxyl radical scavenging activity by ESR spin trapping method relative to CYPMPO
[11] = Antioxidant activity assessed as H2O2-induced hydroxyl radical scavenging activity by ESR spin trapping method
[12] = Antioxidant activity assessed as riboflavin/EDTA-induced superoxide anion radical scavenging activity by ESR spin trapping method relative to CYPMPO
[13] = Antioxidant activity assessed as DMSO/H2O2-induced methyl radical scavenging activity by ESR spin trapping method
[14] = Antioxidant activity assessed as t-butylhyroperoxide-induced alkylperoxyl radical scavenging activity by ESR spin trapping method

SMILES	K [1]	K [2]	K [3]	Ratio [4]	Ratio [5]	Ratio [6]	K [7] [×10¹⁰ /M/s]	K [8] [×10¹⁰ /M/s]	Ratio [9]	Ratio [10]	K [11] [×10⁹ /M/s]	Ratio [12]	K [13]	K [14] [M⁻¹ s⁻¹]
C[C@@H]1O[C@@H](OC[C@H]2O[C@@H](Oc3c(-c4ccc(O)c(O)c4)oc4cc(O)cc(O)c4c3=O)[C@H](O)[C@@H](O)[C@@H]2O)[C@H](O)[C@H](O)[C@H]1O	6.9 ×10⁶ /M/s	3.5 ×10⁸ /M/s	1.5 ×10⁴ /M/s	–	–	–	–	–	–	–	–	–	–	–
CC1=NN(c2ccccc2)C(=O)C1	3.16 ×10⁶ /M/s	27.5 ×10⁶ /M/s	2.93 ×10³ /M/s	2.14	28.7	306	3	1.4	139	39	298	61.1	30 ×10⁶ /M/s	–
Oc1nc(O)c2nc(O)[nH]c2n1	9.9 ×10⁶ /M/s	2.31 ×10⁶ /M/s	10.7 ×10³ /M/s	0	0.894	25.7	–	–	436	0	9.3	222	0 M⁻¹ s⁻¹	0
Cc1c(C)c2c(c(C)c1O)CCC(C)(C(=O)O)O2 (stereo not given)	4.83 ×10⁶ /M/s	62.2 ×10⁶ /M/s	2.1 ×10³ /M/s	0.337	23.8	692	–	–	214	0	24.8	43.8	4.72 ×10⁶ /M/s	0
CC1(C)CCC=[N+]1[O-]	–	–	–	–	–	–	–	–	–	–	2.8	–	1.4 ×10⁷ /M/s	–
N[C@@H](CCC(=O)N[C@@H](CS)C(=O)NCC(=O)O)C(=O)O	2.73 ×10⁶ /M/s	939 ×10⁶ /M/s	1.12 ×10³ /M/s	0.142	1.59	10400	–	–	121	4.09	16.5	23.3	1.99 ×10⁶ /M/s	–
CC1(C)COP(=O)(C2(C)CCC=[N+]2[O-])OC1 (stereo not given)	2.27 ×10⁴ /M/s	–	48 M⁻¹ s⁻¹	–	–	–	–	–	–	–	–	–	–	–
